Each structure is given as a SMILES string. The source made the active and inactive calls.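 Rule for the calls: active = compounds giving half or more protection of infected cells from virus-caused growth loss, again on retest; inactive = the rest.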 Where only a bound is given, the exact number is not on record here.

The test system of the test is CEM cells HIV-1 protection, formazan growth assay. Briefly: NCI AIDS Antiviral Assay. The conditions noted are these: for IC50: measured here: growth of uninfected CEM cells. Put shortly:
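Human CEM cells, uninfected and HIV-1-infected, received five drug concentrations, and growth was read by soluble formazan assay. Compounds giving at least 50% protection were retested; reproducible 100% protection defined confirmed active.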

As to `O=C(O)CSc1c([N+](=O)[O-])cc(C(F)(F)F)cc1[N+](=O)[O-]`, the EC50 is above 200 µM and the IC50 came out at 43.7 µM.
For the compound `C#CCOCn1cnc2c(Sc3c([N+](=O)[O-])ncn3C)ncnc21`, the EC50 is above 105 µM and the IC50 came to 38 µM.
The like results for `O=c1[nH]c2ccccc2nc1/C=C(\O)C(F)F` were, in that order, above 200 µM and above 200 µM.
In the case of `CCCCN(CCCC)CC1CC(C(C)(C)C)CCC1O` (centres undefined), the EC50 was above 200 µM and the IC50 stood at 19.5 µM.
`CC(=O)O[C@H]1CC[C@@]2(C)C(=CC[C@@H]3C2CC[C@@]2(C)C3CC[C@@H]2c2nc(C)cs2)C1` (some centres undefined): the EC50 is above 60.3 µM and the IC50 is above 60.3 µM.
As for `Cc1ccc2c(c1)[n+]([O-])c(N)n[n+]2[O-]`, the EC50 is above 200 µM and the concentration for half-maximal inhibition (IC50) came out at 19.1 µM.
Regarding `CC(C(=O)N1C(=O)N(C(=O)C(C)C(O)c2ccccc2)C2CCCCC21)C(O)c1ccccc1` (centres undefined), the EC50 was above 200 µM and the IC50 was determined as 120 µM.
For `NC(CCC(=O)O)(CCC(=O)O)CCC(=O)O`, the result was inactive.
On to `CN(/N=C/c1ccnc2ccccc12)c1c([N+](=O)[O-])cc([N+](=O)[O-])cc1[N+](=O)[O-]`, for which the EC50 is above 47.9 µM and the IC50 came to 8.71 µM.
`O=C1CCSc2c(cnc3ccccc23)N1`: the EC50 was above 200 µM and the IC50 is above 200 µM.
On to `O=C(OCC1CO1)c1cccs1` (centres undefined), for which the outcome was inactive.
Regarding `CC(C)C(Sc1nc(-c2ccccc2)c(-c2ccccc2)[nH]1)C(=O)N/N=C/c1ccc(Cl)cc1` (centres undefined), the EC50 was above 74.1 µM and the IC50 is above 74.1 µM.
For the compound `CC1=NN(c2nc(N)nc(CSc3cc(Cl)c(C)cc3S(N)(=O)=O)n2)C(C)(C)C1`, the result was inactive.
Consider `COc1ccc(CCN(C)CCCC(C#N)(c2ccc(OC)c(OC)c2)C(C)C)cc1OC` (centres undefined), for which the EC50 is above 200 µM and the concentration for half-maximal inhibition (IC50) is above 200 µM.
Take `COc1cc(C[C@H]2C(=O)OC[C@@H]2C(=O)c2ccc(OC(C)C)c(O)c2)cc(OC)c1O`: the EC50 was above 2 µM and the IC50 is 0.49 µM.
On to `Cn1cc(C2NC(=O)c3ccccc3N2)c2ccccc21` (centres undefined), for which the EC50 is above 200 µM and the IC50 was found to be 0.117 µM.
The like results for `O=C(NCCc1c[nH]c2ccccc12)C(F)(F)C(F)(F)F` were, in that order, above 200 µM and 38 µM.
On to `COc1ccc2c(c1OC)C(=O)c1cc(C(C)O)oc1C2=O` (centres undefined), for which the outcome was inactive.
As for `COc1ccc(CC2COC(=O)[C@@H]2Cc2ccc(O)cc2)cc1OC` (some centres undefined), the EC50 was above 200 µM and the 50% inhibitory concentration (IC50) is 44.7 µM.
For the compound `O=C1c2cc(O)c(O)cc2O[C@H](c2ccc(O)c(O)c2)[C@H]1O`, the EC50 is above 200 µM and the IC50 is 170 µM.
Consider `COc1cccc(OC)c1C1ON=C(c2ccccc2)N1C12CC3CC(CC(C3)C1)C2` (centres undefined), for which the EC50 was above 200 µM and the IC50 came to 141 µM.
The like results for `O=S(=O)(SC1=NCCN1)c1ccccc1` were, in that order, 105 µM and 302 µM.
For the compound `CCCCCCCCCCCCCCCCOCC(COC1OC(CO)C(O)C(O)C1O)OCCCCCCCCCCCCCCCC` (centres undefined), the EC50 is above 19.5 µM.
For the compound `Clc1ccc(-c2cc3nc4ccccc4nc3o2)cc1`, the EC50 was above 100 µM and the IC50 was above 100 µM.
As to `Cc1ccc(S(=O)(=O)N/N=C/c2oc(-c3cccc([N+](=O)[O-])c3)c(-c3cccc([N+](=O)[O-])c3)c2[N+](=O)[O-])cc1`, the EC50 is above 46.8 µM and the IC50 was above 46.8 µM.
With `Cc1c2ccccc2nc(CSc2ccc(Cl)cc2)[n+]1[O-]`, the EC50 was 45.7 µM and the IC50 is 105 µM.
With `CCOC(=O)c1c(C(F)(F)F)oc2c1ccc1nc3nonc3nc12`, the EC50 is above 53.7 µM and the 50% inhibitory concentration (IC50) is 11 µM.
For `CC1CCC2c3c([nH]c4ccccc34)C3C(=O)N(c4ccccc4)C(=O)C3C2C1` (centres undefined), the outcome was inactive.
Turning to `C[C@]12CCC3[C@@H](C[C@H]4OC(=O)[C@@]35CCC(=O)C=C45)C1CCC2=O` (some centres undefined), the result was inactive.
In the case of `CC(=O)N(C(C)=O)c1nc2c(c(=O)n(C)c(=O)n2C)n1C`, the EC50 was above 200 µM and the IC50 is above 200 µM.
Consider `O=P(O)(O)C(N=C(Nc1ccccc1)Nc1ccccc1)P(=O)(O)O`, for which the EC50 is above 100 µM and the IC50 was above 100 µM.
As for `NC(=S)Nc1cc(Cl)ccc1Cl`, the EC50 was above 32.4 µM and the IC50 was above 32.4 µM.
Regarding `CN(C)c1ccc(/C=C(\C#N)c2ccc(Br)cc2)cc1`, the EC50 is above 100 µM and the IC50 turned out to be 1.35 µM.
For `CCOc1ccc(NC(=O)C(=O)CC(=O)c2sc(NNC(C)=O)nc2C)cc1`, the EC50 was above 44.7 µM and the half-inhibitory concentration (IC50) was above 44.7 µM.
Consider `CC1=NC(C)(C)N(O)C1(C)C`, for which the EC50 was above 200 µM and the IC50 was above 200 µM.
For the compound `CC(=O)C1(O)CC2(c3ccccc3)C(=O)C1(c1ccccc1)C(c1ccccc1)=C2c1ccccc1` (centres undefined), the result was inactive.
Take `C=CCC(C)C12CCNC(Cc3ccc(O)cc31)C2C` (centres undefined): the EC50 was above 200 µM and the IC50 is above 200 µM.
For the compound `CCOC(=O)CCSS(=O)(=O)c1ccccc1`, the EC50 was above 200 µM and the IC50 was determined as 35.5 µM.
With `O=S1(=O)CC2OC(c3ccccc3)OC2C1` (centres undefined), the EC50 was above 537 µM and the IC50 is above 537 µM.
As to `N#CC1(c2ccccc2)CCNCC1`, the EC50 is above 1120 µM and the IC50 turned out to be 562 µM.
The matching figures for `CSc1nc(Cl)c2c(n1)Sc1nc3ccccc3n1N=C2`: above 100 µM and 55 µM.
With `COc1cc2c(cc1OC)C1C[C@]3(CCN1CC2)C(=O)N(c1ccccc1)C(=O)N3C(C)=O` (some centres undefined), the EC50 is above 10 µM and the half-inhibitory concentration (IC50) was above 10 µM.
For `O=CCCCC(Sc1ccccc1)Sc1ccccc1`, the result was inactive.
Regarding `CC1CC(OP(=O)(OCc2ccccc2)OCc2ccccc2)[C@@H](OCc2ccccc2)C(OCc2ccccc2)C1OCc1ccccc1` (some centres undefined), the EC50 is above 100 µM and the half-maximal inhibitory concentration (IC50) is above 100 µM.
Turning to `N.N.N.N.N.N.O=N[O-].[Br-].[Co+3].[Co+3].[OH3+].[OH3+]`, the outcome was inactive.
In the case of `CCOC(=O)N1CCC2(CC1)CC(=O)N(Nc1ccccc1)C2=O`, the EC50 is above 200 µM and the IC50 amounted to 36.3 µM.
For the compound `CCO[C@@H]1OC(=O)[C@H]2C(c3ccccc3Cl)=NO[C@@H]12`, the EC50 was above 178 µM and the IC50 is above 178 µM.
As to `CC(C)OP(=S)(NC(=S)c1ccccc1)OC(C)C`, the EC50 is above 741 µM and the IC50 stood at 178 µM.
With `NNC(=O)N/N=C1\CNC(=O)C(=O)C1c1nc2ccccc2s1` (centres undefined), the result was inactive.
For `O=C(NC(=O)c1ccccc1O)c1ccccc1`, the EC50 was above 282 µM and the half-inhibitory concentration (IC50) is above 282 µM.
Consider `NS(=O)(=O)c1ccc(NC(=O)COC(=O)c2cccc3c(=O)c4ccccc4[nH]c23)cc1`, for which the result was inactive.
On the same count and under the same terms, next, `CCn1cc(C(=O)O)c(=O)c2cccc(OC)c21`: “inactive”.
On to `CCOC(=O)C1=CC(C)(C(=O)OCC)Nc2c(nc(OC)n(C)c2=O)N1` (centres undefined), for which the EC50 is above 200 µM and the IC50 is above 200 µM.
Regarding `CN(C)CCN1C(=O)c2c(c3cccn3c3c2cnn3-c2ccccc2)C1=O`, the EC50 is above 200 µM and the IC50 is above 200 µM.
For the compound `O=S(=O)(O)c1ccc(O)c2ncc(Cl)cc12`, the EC50 is above 200 µM and the IC50 was above 200 µM.
Turning to `CCCCc1ccc(Nc2nc3c(ncn3C3OC(COC(C)=O)C(OC(C)=O)C3OC(C)=O)c(=O)[nH]2)cc1` (centres undefined), the EC50 was above 200 µM and the IC50 was found to be 11.7 µM.
Take `COc1ccc2c(c1)OCC1Cc3cccc(OC)c3OC21` (centres undefined): the EC50 is above 200 µM and the IC50 was determined as 44.7 µM.
Consider `COC1/C=C/OC2(C)Oc3c(C)c(O)c4c(O)c(cc(OCC(=O)N(C)CCCCC(=O)O)c4c3C2=O)NC(=O)/C(C)=C/C=C/C(C)C(O)C(C)C(O)C(C)C(OC(C)=O)C1C` (centres undefined), for which the EC50 was above 200 µM and the IC50 came out at 19.1 µM.
With `COC(=O)C(=O)/C=C(/O)c1c(C)[nH]c2ccccc12`, the EC50 was above 200 µM and the IC50 was above 200 µM.
On to `C1CCCCc2nc3c(nc2CCC1)c1nc2c(nc1c1nc4c(nc31)CCCCCCCC4)CCCCCCCC2`, for which the outcome was inactive.
Consider `NC1=NC(=O)C(CC(=O)Nc2ccc([N+](=O)[O-])cc2[N+](=O)[O-])S1` (centres undefined), for which the EC50 is above 75.9 µM and the IC50 was above 75.9 µM.
Take `CSc1nc[nH]c1C(N)=S`: the EC50 was above 200 µM and the IC50 was above 200 µM.
As to `NC(=O)CCC(N=c1c2ccccc2n(O)c2ccccc12)C(=O)O` (centres undefined), the result was inactive.
Same read-out and setting: next, `CN1C(=O)CC2(C)c3cc(C=O)ccc3N(C)C12` (centres undefined): “inactive”.
For the compound `CCOC(=O)c1csc(-c2nc(CCNC(=O)c3ccccc3)sc2Cl)n1`, the EC50 is above 85.1 µM and the IC50 came to 44.7 µM.
As to `CC(C)CCCC(C)[C@H]1CC[C@H]2[C@@H]3CC[C@H]4C[C@@H](CCC=C(c5cc(Cl)c(OCc6ccccc6B6OC(C)(C)C(C)(C)O6)c(C(=O)OCc6ccccc6B6OC(C)(C)C(C)(C)O6)c5)c5cc(Cl)c(OCc6ccccc6B6OC(C)(C)C(C)(C)O6)c(C(=O)OCc6ccccc6B6OC(C)(C)C(C)(C)O6)c5)CC[C@]4(C)[C@H]3CC[C@]12C` (some centres undefined), the EC50 is above 126 µM and the half-maximal inhibitory concentration (IC50) is above 126 µM.
On to `CC(C)C(Sc1nc(-c2ccccc2)c(-c2ccccc2)[nH]1)C(=O)NN` (centres undefined), for which the EC50 was above 10.2 µM and the IC50 was 4.9 µM.
`CC(CCC(N)=O)(CCC(N)=O)[N+](=O)[O-]`: the EC50 was above 200 µM and the IC50 is above 200 µM.
As for `COCn1c2ccccc2c2nc(-c3ccncc3)nc(-c3ccncc3)c21`, the EC50 is above 3.98 µM and the 50% inhibitory concentration (IC50) was above 3.98 µM.
For the compound `Cc1cn(C2CC(NC(=O)NO)C(CO)O2)c(=O)[nH]c1=O` (centres undefined), the EC50 was above 200 µM and the IC50 was above 200 µM.
`COc1ccc([N+](=O)[O-])cc1NC(=O)c1ccc2c(c1)C(=O)OC2=O`: the EC50 is 29.5 µM and the IC50 was 64.6 µM.
As to `SCc1ccc(CS)s1`, the EC50 was above 741 µM and the IC50 was above 741 µM.
On to `Nc1cccc2c1-c1c(cccc1[N+](=O)[O-])C2=O`, for which the outcome was inactive.

The values are drawn from PubChem BioAssay AID179 (DTP/NCI, 2004).
